The record followed here is patent US11046699B2, “Pyrazolo-pyrimidin-amino-cycloalkyl compounds and their therapeutic uses” (RAPT THERAPEUTICS, INC., priority 2018, dated 2021).

In the assay the target is GCN2 (Homo sapiens, UniProt Q9P2K8). Put plainly: GCN2 enzymatic endpoint assay: phosphorylation of GFP-eIF2α measured by TR-FRET (Lanthascreen). The class given is biochemical. Particulars: GCN2 biochemical IC50; 4 nM GCN2, 2 μM ATP, 80 nM GFP-eIF2α, 90 min RT; read-out: GCN2 activity. The essentials: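 Phosphorylated eIF2α read by Lanthascreen TR-FRET (acceptor 520 nm over donor 495 nm) after EDTA stop. The reaction ran 90 min at room temperature on 80 nM GFP-eIF2α with 2 μM ATP.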

Where a name gives a salt, the structure may show the parent alone.

Sequence of GCN2 (Q9P2K8 whole entry): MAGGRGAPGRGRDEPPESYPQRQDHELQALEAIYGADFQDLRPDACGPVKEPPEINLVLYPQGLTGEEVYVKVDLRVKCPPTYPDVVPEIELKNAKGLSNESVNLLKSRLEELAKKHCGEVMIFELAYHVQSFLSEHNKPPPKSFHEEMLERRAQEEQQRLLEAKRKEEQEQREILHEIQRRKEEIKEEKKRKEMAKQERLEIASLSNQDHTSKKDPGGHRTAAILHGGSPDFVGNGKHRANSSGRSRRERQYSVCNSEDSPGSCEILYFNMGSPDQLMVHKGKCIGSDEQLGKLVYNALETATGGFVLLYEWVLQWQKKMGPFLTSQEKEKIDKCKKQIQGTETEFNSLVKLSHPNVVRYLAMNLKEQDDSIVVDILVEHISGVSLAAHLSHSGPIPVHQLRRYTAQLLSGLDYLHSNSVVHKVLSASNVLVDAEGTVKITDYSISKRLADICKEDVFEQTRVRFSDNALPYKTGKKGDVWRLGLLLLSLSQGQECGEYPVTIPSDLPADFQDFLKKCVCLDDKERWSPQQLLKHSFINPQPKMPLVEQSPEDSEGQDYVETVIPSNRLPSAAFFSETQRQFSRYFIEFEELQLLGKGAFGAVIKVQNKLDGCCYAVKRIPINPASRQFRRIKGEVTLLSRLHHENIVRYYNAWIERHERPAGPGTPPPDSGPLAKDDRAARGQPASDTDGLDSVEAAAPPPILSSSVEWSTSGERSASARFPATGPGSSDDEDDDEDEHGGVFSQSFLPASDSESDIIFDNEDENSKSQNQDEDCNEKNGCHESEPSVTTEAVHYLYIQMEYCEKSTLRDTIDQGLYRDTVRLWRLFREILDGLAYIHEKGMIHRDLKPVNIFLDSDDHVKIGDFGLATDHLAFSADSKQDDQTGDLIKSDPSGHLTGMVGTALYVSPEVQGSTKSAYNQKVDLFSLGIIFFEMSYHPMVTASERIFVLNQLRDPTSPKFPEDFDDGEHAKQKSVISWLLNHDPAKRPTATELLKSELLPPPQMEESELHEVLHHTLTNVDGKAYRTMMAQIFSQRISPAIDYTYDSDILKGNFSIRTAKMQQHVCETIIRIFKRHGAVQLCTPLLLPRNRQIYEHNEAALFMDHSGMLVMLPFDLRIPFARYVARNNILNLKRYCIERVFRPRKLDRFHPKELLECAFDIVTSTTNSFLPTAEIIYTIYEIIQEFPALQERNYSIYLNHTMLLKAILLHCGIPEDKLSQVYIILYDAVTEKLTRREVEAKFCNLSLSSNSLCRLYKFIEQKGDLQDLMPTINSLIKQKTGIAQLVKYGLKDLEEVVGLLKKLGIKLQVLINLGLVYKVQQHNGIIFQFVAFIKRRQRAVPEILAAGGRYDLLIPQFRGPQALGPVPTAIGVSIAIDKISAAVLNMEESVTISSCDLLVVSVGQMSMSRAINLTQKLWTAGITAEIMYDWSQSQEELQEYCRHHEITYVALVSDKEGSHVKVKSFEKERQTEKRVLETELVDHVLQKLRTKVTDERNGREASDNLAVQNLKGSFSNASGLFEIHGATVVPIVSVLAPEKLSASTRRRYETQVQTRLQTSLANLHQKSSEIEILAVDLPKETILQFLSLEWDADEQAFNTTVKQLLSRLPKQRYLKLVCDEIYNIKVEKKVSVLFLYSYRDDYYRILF

Take `CNC(=O)C1(C)CC[C@@H](Nc2ncc3c(Br)nn(-c4ccc(-c5cccnc5)c(C#N)c4)c3n2)C1` (stereo partly drawn) [Example 44, (3R)-3-((3-bromo-1-(3-cyano-4-(pyridin-3-yl)phenyl)-1H-pyrazolo[3,4-d]pyrimidin-6-yl)amino)-N,1-dimethylcyclopentane-1-carboxamide; 2,2,2-trifluoroacetic acid]: the IC50 is 25 to 200 nM.
The figure for `CNC(=O)[C@]1(C)CC[C@@H](Nc2ncc3c(Br)nn(-c4ccc(-c5ncco5)c(CC#N)c4)c3n2)C1` [Example 45, (1R,3R)-3-((3-bromo-1-(3-(cyanomethyl)-4-(oxazol-2-yl)phenyl)-1H-pyrazolo[3,4-d]pyrimidin-6-yl)amino)-N,1-dimethylcyclopentane-1-carboxamide; 2,2,2-trifluoroacetic acid] is 25 to 200 nM; for `CNC(=O)[C@]1(C)CC[C@@H](Nc2ncc3c(Br)nn(-c4cc(Cl)cc(CO)c4)c3n2)C1` [Example 46, (1R,3R)-3-((3-bromo-1-(3-chloro-5-(hydroxymethyl)phenyl)-1H-pyrazolo[3,4-d]pyrimidin-6-yl)amino)-N,1-dimethylcyclopentane-1-carboxamide; 2,2,2-trifluoroacetic acid] it is 25 to 200 nM; for `CNC(=O)[C@]1(C)CC[C@@H](Nc2ncc3c(Br)nn(-c4ccc(-c5nnc(C(C)(C)N)o5)cc4)c3n2)C1` [Example 47, (1R,3R)-3-((1-(4-(5-(2-aminopropan-2-yl)-1,3,4-oxadiazol-2-yl)phenyl)-3-bromo-1H-pyrazolo[3,4-d]pyrimidin-6-yl)amino)-N,1-dimethylcyclopentane-1-carboxamide; 2,2,2-trifluoroacetic acid] it is 25 to 200 nM.
For `O=C1NCC[C@]12CC[C@@H](Nc1ncc3c(Br)nn(-c4cc(F)c5ncccc5c4)c3n1)C2` [Example 48, (5S,7R)-7-((3-bromo-1-(8-fluoroquinolin-6-yl)-1H-pyrazolo[3,4-d]pyrimidin-6-yl)amino)-2-azaspiro[4.4]nonan-1-one hydrochloride] the value was 25 to 200 nM; for `CNC(=O)[C@]1(C)CC[C@@H](Nc2ncc3c(Br)nn(-c4ccc(-c5nnc(C)s5)c(CCC#N)c4)c3n2)C1` [Example 49, (1R,3R)-3-((3-bromo-1-(3-(2-cyanoethyl)-4-(5-methyl-1,3,4-thiadiazol-2-yl)phenyl)-1H-pyrazolo[3,4-d]pyrimidin-6-yl)amino)-N,1-dimethylcyclopentane-1-carboxamide], 25 to 200 nM.
The figure for `CNC(=O)[C@]1(C)CC[C@@H](Nc2ncc3c(Br)nn(-c4cc(C#N)c5c(c4)CCO5)c3n2)C1` [Example 50, (1R,3R)-3-((3-bromo-1-(7-cyano-2,3-dihydrobenzofuran-5-yl)-lH-pyrazolo[3,4-d]pyrimidin-6-yl)amino)-N,1-dimethylcyclopentane-1-carboxamide; 2,2,2-trifluoroacetic acid] is 25 to 200 nM.
On to `CNC(=O)[C@]1(CC(F)F)CC[C@@H](Nc2ncc3c(Br)nn(-c4ccc5nccnc5c4)c3n2)C1` [Example 51, (1R,3R)-3-((3-bromo-1-(quinoxalin-6-yl)-1H-pyrazolo[3,4-d]pyrimidin-6-yl)amino)-1-(2,2-difluoroethyl)-N-methylcyclopentane-1-carboxamide; 2,2,2-trifluoroacetic acid], for which the IC50 was in the range of 25 to 200 nM.
The figure for `CNC(=O)[C@]1(C)CC[C@@H](Nc2ncc3c(Br)nn(-c4cc(Cl)cc(CN)c4)c3n2)C1` [Example 52, (1R,3R)-3-((1-(3-(aminomethyl)-5-chlorophenyl)-3-bromo-1H-pyrazolo[3,4-d]pyrimidin-6-yl)amino)-N,1-dimethylcyclopentane-1-carboxamide; 2,2,2-trifluoroacetic acid] is 25 to 200 nM.
